The source of these data is paper PMC6237300, “Influenza B viruses circulated during last 5 years in Mongolia” (PLoS ONE, 2018).

Assay [1] deals with NA of B/Khentii/1137/2014 (G140R) (Influenza B virus, UniProt U5XBU0, G140R). The assay is classed as biochemical.
Assay [2] deals with NA of B/Darkhan/1484/2014 (H101N, E105K) (Influenza B virus, UniProt U5XBU0, E105K/H101N). The assay is classed as biochemical.
Assay [3] addresses NA of B/Ulaanbaatar/1113/2014 (I114T) (Influenza B virus, UniProt U5XBU0, I114T). The assay is classed as biochemical.
The target in assay [4] is NA of B/Ulaanbaatar/1495/2014 (E105K) (Influenza B virus, UniProt U5XBU0, E105K). The format is biochemical.
Assay [5] deals with neuraminidase of the influenza B virus with H273Y mutation. Particulars: cited from earlier work.
Assay [6] addresses NA of B/Ulaanbaatar/1708/2014 (G104R) (Influenza B virus, UniProt U5XBU0, G104R). The assay is classed as biochemical.

Each structure is given as a SMILES string.

Take `[H]/N=C(\N)N[C@H]1C=C(C(=O)O)O[C@@H]([C@H](OC)[C@H](O)CO)[C@@H]1NC(C)=O` [Laninamivir, laninamivir]: the susceptibility category entry is “sensitive” in assay [1], “reduced susceptibility” in assay [2], “sensitive” in assay [3] and “reduced susceptibility” in assay [4].
As to `CCC(CC)[C@H](NC(C)=O)[C@@H]1[C@H](O)[C@@H](C(=O)O)C[C@H]1N=C(N)N` [Peramivir, peramivir], the Fold increase in assay [1] is reported as 10; in assay [2], 2500; in assay [3], 10; in assay [4], 5000; in assay [6], >100000. In addition, the half-inhibitory concentration (IC50) in assay [1] was found to be 0.00718 µM; in assay [2], 1.53 µM; in assay [3], 0.0118 µM; in assay [4] it was 3.27 µM; in assay [6] it was 288 µM. For the same molecule, the susceptibility category result in assay [1] is recorded as “reduced susceptibility”; in assay [2], “highly reduced susceptibility”; in assay [3], “reduced susceptibility”; in assay [4] it was “highly reduced susceptibility”. For the same molecule, the “resistance of H273Y mutant” value in assay [5] is recorded as “resistant”.

The IC50 is the concentration needed to halve the response being measured. A low value points to higher potency.
